Measured values taken from US20250171438A1 (Agios Pharmaceuticals, Inc., priority 2022, published 2025).

Biological target: T1, human PAH with the R408W mutation (Homo sapiens, UniProt P00439, R408W)
T1 construct: expressed in transfected cells
T1 sequence (P00439 1-452 R408W): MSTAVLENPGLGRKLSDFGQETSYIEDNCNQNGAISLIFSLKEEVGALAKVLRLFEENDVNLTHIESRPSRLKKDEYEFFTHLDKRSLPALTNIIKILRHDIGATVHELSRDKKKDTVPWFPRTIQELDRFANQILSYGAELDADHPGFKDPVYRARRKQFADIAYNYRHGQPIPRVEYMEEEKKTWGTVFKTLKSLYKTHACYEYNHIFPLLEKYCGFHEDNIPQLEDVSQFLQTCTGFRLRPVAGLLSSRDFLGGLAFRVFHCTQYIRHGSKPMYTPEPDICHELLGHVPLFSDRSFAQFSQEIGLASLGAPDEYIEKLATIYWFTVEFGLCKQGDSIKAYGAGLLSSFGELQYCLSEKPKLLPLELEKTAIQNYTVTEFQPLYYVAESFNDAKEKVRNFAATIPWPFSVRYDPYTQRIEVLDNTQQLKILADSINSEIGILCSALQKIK
Experiment: Cell Based Phenylalanine Flux Assay
Settings: A375 cells expressing human R408W PAH; 24 hrs with compound; 13C-Tyrosine by LC-MS; average where tested multiple times; read-out: AC50

| SMILES | AC50 [µM] |
| --- | --- |
| O=C(CCc1nc2ccccc2s1)N1CCc2[nH]cnc2[C@H]1c1nc2ccccc2[nH]1 [(S)-1-(4-(1H-benzo[d]imidazol-2-yl)-1,4,6,7-tetrahydro-5H-imidazo[4,5-c]pyridin-5-yl)-3-(benzo[d]thiazol-2-yl)propan-1-one] | 1 to 5 |
| O=C(CCc1cscn1)N1CCc2[nH]cnc2[C@H]1c1nc2ccccc2[nH]1 [(S)-1-(4-(1H-benzo[d]imidazol-2-yl)-1,4,6,7-tetrahydro-5H-imidazo[4,5-c]pyridin-5-yl)-3-(thiazol-4-yl)propan-1-one] | 1 to 5 |
| O=C(CCc1cncs1)N1CCc2[nH]cnc2[C@H]1c1nc2ccccc2[nH]1 [(S)-1-(4-(1H-benzo[d]imidazol-2-yl)-1,4,6,7-tetrahydro-5H-imidazo[4,5-c]pyridin-5-yl)-3-(thiazol-5-yl)propan-1-one] | > 5 |
| O=C(CCCc1ccc(F)cc1)N1CCc2[nH]cnc2[C@H]1c1nc2ccccc2[nH]1 [(S)-1-(4-(1H-benzo[d]imidazol-2-yl)-1,4,6,7-tetrahydro-5H-imidazo[4,5-c]pyridin-5-yl)-4-(4-fluorophenyl)butan-1-one] | 1 to 5 |
| O=C(CCCc1nc2ccccc2s1)N1CCc2[nH]cnc2[C@H]1c1nc2ccccc2[nH]1 [(S)-1-(4-(1H-benzo[d]imidazol-2-yl)-1,4,6,7-tetrahydro-5H-imidazo[4,5-c]pyridin-5-yl)-4-(benzo[d]thiazol-2-yl)butan-1-one] | 1 to 5 |
| O=C(CCCc1nccs1)N1CCc2[nH]cnc2[C@H]1c1nc2ccccc2[nH]1 [(S)-1-(4-(1H-benzo[d]imidazol-2-yl)-1,4,6,7-tetrahydro-5H-imidazo[4,5-c]pyridin-5-yl)-4-(thiazol-2-yl)butan-1-one] | 1 to 5 |
| O=C(Cn1cncn1)N1CCc2[nH]cnc2[C@H]1c1nc2ccccc2[nH]1 [(S)-1-(4-(1H-benzo[d]imidazol-2-yl)-6,7-dihydro-1H-imidazo[4,5-c]pyridin-5(4H)-yl)-2-(1H-1,2,4-triazol-1-yl)ethanone] | > 5 |

More lines, now with the values ahead:

| AC50 [µM] | SMILES |
| --- | --- |
| 1 to 5 | O=C(Cc1coc(C(F)F)n1)N1CCc2[nH]cnc2[C@H]1c1nc2ccccc2[nH]1 [(S)-1-(4-(1H-benzo[d]imidazol-2-yl)-6,7-dihydro-1H-imidazo[4,5-c]pyridin-5(4H)-yl)-2-(2-(difluoromethyl)oxazol-4-yl)ethanone] |
| > 5 | Cc1ncc(CC(=O)N2CCc3[nH]cnc3[C@H]2c2nc3ccccc3[nH]2)o1 [(S)-1-(4-(1H-benzo[d]imidazol-2-yl)-6,7-dihydro-1H-imidazo[4,5-c]pyridin-5(4H)-yl)-2-(2-methyloxazol-5-yl)ethanone] |
| 1 to 5 | Cc1ncoc1CC(=O)N1CCc2[nH]cnc2[C@H]1c1nc2ccccc2[nH]1 [(S)-1-(4-(1H-benzo[d]imidazol-2-yl)-6,7-dihydro-1H-imidazo[4,5-c]pyridin-5(4H)-yl)-2-(4-methyloxazol-5-yl)ethanone] |
| > 5 | O=C(Cc1cnco1)N1CCc2[nH]cnc2[C@H]1c1nc2ccccc2[nH]1 [(S)-1-(4-(1H-benzo[d]imidazol-2-yl)-6,7-dihydro-1H-imidazo[4,5-c]pyridin-5(4H)-yl)-2-(oxazol-5-yl)ethanone] |
| 1 to 5 | O=C(Cc1cnn2ccccc12)N1CCc2[nH]cnc2[C@H]1c1nc2ccccc2[nH]1 [(S)-1-(4-(1H-benzo[d]imidazol-2-yl)-6,7-dihydro-1H-imidazo[4,5-c]pyridin-5(4H)-yl)-2-(pyrazolo[1,5-a]pyridin-3-yl)ethanone] |
| 1 to 5 | O=C(Cc1ccccn1)N1CCc2[nH]cnc2[C@H]1c1nc2ccccc2[nH]1 [(S)-1-(4-(1H-benzo[d]imidazol-2-yl)-6,7-dihydro-1H-imidazo[4,5-c]pyridin-5(4H)-yl)-2-(pyridin-2-yl)ethanone] |
| 1 to 5 | O=C(Cc1cscn1)N1CCc2[nH]cnc2[C@H]1c1nc2ccccc2[nH]1 [(S)-1-(4-(1H-benzo[d]imidazol-2-yl)-6,7-dihydro-1H-imidazo[4,5-c]pyridin-5(4H)-yl)-2-(thiazol-4-yl)ethanone] |
